In US6737383B1, “Herbicidal oxadiazolidines” (priority 1999, dated 2004):

Experiments:
bamyardgrass = assay: Test B flood test barnyardgrass; type: in vivo, Echinochloa crus-galli
Summary of the method: (§1)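 Plants were grown to the 2-leaf stage before treatment with test chemical, then held in a greenhouse for twelve to sixteen days. Injury was visually rated against untreated controls on a 0–10 scale, where 0 is no effect and 10 is complete control.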

blackgrass = assay: Test B pre/postemergence blackgrass; type: in vivo, Alopecurus myosuroides
Summary of the method: (§2)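 Test chemicals in a non-phytotoxic solvent mixture with surfactant were sprayed preemergence onto planted seeds and postemergence onto plants 2 to 18 cm tall (1- to 4-leaf stage). After twelve to sixteen days in a greenhouse, injury was visually rated against untreated controls from 0 (no effect) to 10 (complete control).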

purple nutsedge = assay: Test B pre/postemergence purple nutsedge; type: in vivo, Cyperus rotundus
Summary of the method: as §2

rape = assay: Test B pre/postemergence rape; type: in vivo, Brassica napus
Summary of the method: as §2

smallflower flatsedge = assay: Test B flood test smallflower flatsedge; type: in vivo, Cyperus difformis
Summary of the method: as §1

rice = assay: Test B flood test rice; type: in vivo, Oryza sativa
Summary of the method: as §1

giant foxtail = assay: Test B pre/postemergence giant foxtail; type: in vivo, Setaria faberii
Summary of the method: as §2

soybean = assay: Test B pre/postemergence soybean; type: in vivo, Glycine max
Summary of the method: as §2

bedstraw = assay: Test B pre/postemergence bedstraw; type: in vivo, Galium aparine
Summary of the method: as §2

sugar beet = assay: Test B pre/postemergence sugar beet; type: in vivo, Beta vulgaris
Summary of the method: as §2

duck salad = assay: Test B flood test duck salad; type: in vivo, Heteranthera limosa
Summary of the method: as §1

velvetleaf = assay: Test B pre/postemergence velvetleaf; type: in vivo, Abutilon theophrasti
Summary of the method: as §2

surinam grass = assay: Test B pre/postemergence surinam grass; type: in vivo, Brachiaria decumbens
Summary of the method: as §2

pigweed = assay: Test B pre/postemergence pigweed; type: in vivo, Amaranthus retroflexus
Summary of the method: as §2

morningglory = assay: Test B pre/postemergence morningglory; type: in vivo, Ipomoea hederacea
Summary of the method: as §2

corn = assay: Test B pre/postemergence corn; type: in vivo, Zea mays
Summary of the method: as §2

[1] = Rate 31 g/ha, Pre-emergence section (flood test species), scale 0 to 10
[2] = Rate 62 g/ha, headed Pre-emergence (flood test species), scale 0 to 10 (0 no effect, 10 complete control)
[3] = Rate 125 g/ha, Pre-emergence, flood test species, scale 0 to 10 where 0 is no effect and 10 is complete control
[4] = Rate 250 g/ha, Pre-emergence, flood-test species, scale 0 to 10, 0 is no effect, 10 is complete control
[5] = Preemergence, Rate 31 g/ha, visual rating, scale 0 to 10 (0 no effect, 10 complete control)
[6] = Preemergence, Rate 62 g/ha, scale of 0 to 10 where 0 is no effect and 10 is complete control
[7] = Preemergence, Rate 250 g/ha, scale of 0 to 10 where 0 is no effect and 10 is complete control
[8] = Rate 31 g/ha, Postemergence, scale 0 to 10
[9] = Rate 62 g/ha, Postemergence, scale 0 to 10 (0 no effect, 10 complete control)
[10] = Rate 125 g/ha, Postemergence, scale of 0 to 10 where 0 is no effect and 10 is complete control
[11] = Rate 125 g/ha, Preemergence, scale of 0 to 10 where 0 is no effect and 10 is complete control
[12] = Rate 250 g/ha, Postemergence, scale of 0 to 10 where 0 is no effect and 10 is complete control
[13] = Rate 500 g/ha, Pre-emergence, flood test species, scale 0 to 10 (0 no effect, 10 complete control)
[14] = Preemergence, Rate 500 g/ha, scale of 0 to 10 where 0 is no effect and 10 is complete control
[15] = Rate 500 g/ha, Postemergence, scale 0 to 10, 0 no effect, 10 complete control

CC(C)=CCn1c(=O)on(C(=O)N(c2ccc(F)cc2)C(C)C)c1=O [Compound 288]
8: Morningglory plant response rating (morningglory; [10]) | Plant response rating, Morningglory (morningglory; [12])
6: Blackgrass plant response rating (blackgrass; [7]) | B. signalgrass plant response rating (surinam grass; [7])
9: Barnyardgrass plant response rating (bamyardgrass; [4]) | Giant foxtail plant response rating (giant foxtail; [11])
2: Blackgrass plant response rating (blackgrass; [11]) | Plant response rating, Blackgrass (blackgrass; [12]) | Rape plant response rating (rape; [10]) | Soybean plant response rating (soybean; [10]) | Plant response rating, Soybean (soybean; [12]) | Bedstraw plant response rating (bedstraw; [11])
4: Barnyardgrass plant response rating (bamyardgrass; [3]) | B. signalgrass plant response rating (surinam grass; [11])
0: Barnyardgrass plant response rating (bamyardgrass; [1]) | Barnyardgrass plant response rating (bamyardgrass; [2]) | Blackgrass plant response rating (blackgrass; [5]) | Blackgrass plant response rating (blackgrass; [6]) | Blackgrass plant response rating (blackgrass; [8]) | Blackgrass plant response rating (blackgrass; [9]) | Blackgrass plant response rating (blackgrass; [10]) | Nutsedge plant response rating (purple nutsedge; [5]) | Nutsedge plant response rating (purple nutsedge; [6]) | Nutsedge plant response rating (purple nutsedge; [7]) | Nutsedge plant response rating (purple nutsedge; [8]) | Nutsedge plant response rating (purple nutsedge; [9]) | Nutsedge plant response rating (purple nutsedge; [10]) | Nutsedge plant response rating (purple nutsedge; [11]) | Plant response rating, Nutsedge (purple nutsedge; [12]) | Rape plant response rating (rape; [5]) | Rape plant response rating (rape; [6]) | Rape plant response rating (rape; [7]) | Rape plant response rating (rape; [8]) | Rape plant response rating (rape; [11]) | S. Flatsedge plant response rating (smallflower flatsedge; [1]) | S. Flatsedge plant response rating (smallflower flatsedge; [2]) | S. Flatsedge plant response rating (smallflower flatsedge; [3]) | S. Flatsedge plant response rating (smallflower flatsedge; [4]) | Rice plant response rating (rice; [1]) | Rice plant response rating (rice; [2]) | Rice plant response rating (rice; [3]) | Rice plant response rating (rice; [4]) | Giant foxtail plant response rating (giant foxtail; [5]) | Giant foxtail plant response rating (giant foxtail; [8]) | Giant foxtail plant response rating (giant foxtail; [9]) | Giant foxtail plant response rating (giant foxtail; [10]) | Plant response rating, Giant foxtail (giant foxtail; [12]) | Soybean plant response rating (soybean; [5]) | Soybean plant response rating (soybean; [6]) | Soybean plant response rating (soybean; [7]) | Soybean plant response rating (soybean; [9]) | Soybean plant response rating (soybean; [11]) | Bedstraw plant response rating (bedstraw; [5]) | Bedstraw plant response rating (bedstraw; [6]) | Bedstraw plant response rating (bedstraw; [8]) | Bedstraw plant response rating (bedstraw; [9]) | Bedstraw plant response rating (bedstraw; [10]) | Plant response rating, Bedstraw (bedstraw; [12]) | Sugarbeets plant response rating (sugar beet; [5]) | Sugarbeets plant response rating (sugar beet; [6]) | Sugarbeets plant response rating (sugar beet; [7]) | Sugarbeets plant response rating (sugar beet; [9]) | Sugarbeets plant response rating (sugar beet; [10]) | Sugarbeets plant response rating (sugar beet; [11]) | Plant response rating, Sugarbeets (sugar beet; [12]) | Ducksalad plant response rating (duck salad; [1]) | Ducksalad plant response rating (duck salad; [2]) | Ducksalad plant response rating (duck salad; [3]) | Ducksalad plant response rating (duck salad; [4]) | Velvetleaf plant response rating (velvetleaf; [5]) | Velvetleaf plant response rating (velvetleaf; [6]) | Velvetleaf plant response rating (velvetleaf; [9]) | Velvetleaf plant response rating (velvetleaf; [10]) | Velvetleaf plant response rating (velvetleaf; [11]) | B. signalgrass plant response rating (surinam grass; [5]) | B. signalgrass plant response rating (surinam grass; [6]) | B. signalgrass plant response rating (surinam grass; [8]) | B. signalgrass plant response rating (surinam grass; [9]) | B. signalgrass plant response rating (surinam grass; [10]) | Plant response rating, B. signalgrass (surinam grass; [12]) | Redroot pigweed plant response rating (pigweed; [5]) | Redroot pigweed plant response rating (pigweed; [6]) | Redroot pigweed plant response rating (pigweed; [7]) | Redroot pigweed plant response rating (pigweed; [8]) | Redroot pigweed plant response rating (pigweed; [9]) | Redroot pigweed plant response rating (pigweed; [10]) | Redroot pigweed plant response rating (pigweed; [11]) | Plant response rating, Redroot pigweed (pigweed; [12]) | Morningglory plant response rating (morningglory; [5]) | Morningglory plant response rating (morningglory; [6]) | Morningglory plant response rating (morningglory; [7]) | Morningglory plant response rating (morningglory; [11]) | Corn plant response rating (corn; [5]) | Corn plant response rating (corn; [6]) | Corn plant response rating (corn; [7]) | Corn plant response rating (corn; [8]) | Corn plant response rating (corn; [9]) | Corn plant response rating (corn; [10]) | Corn plant response rating (corn; [11]) | Plant response rating, Corn (corn; [12])
7: Morningglory plant response rating (morningglory; [9])
3: Plant response rating, Rape (rape; [12]) | Velvetleaf plant response rating (velvetleaf; [7]) | Morningglory plant response rating (morningglory; [8])
1: Rape plant response rating (rape; [9]) | Plant response rating, Velvetleaf (velvetleaf; [12])
5: Giant foxtail plant response rating (giant foxtail; [6])
10: Giant foxtail plant response rating (giant foxtail; [7]) | Bedstraw plant response rating (bedstraw; [7])

CCN(CC)C(=O)n1oc(=O)n(C2CC2)c1=O [Compound 297]
2: Soybean plant response rating (soybean; [9])
3: S. Flatsedge plant response rating (smallflower flatsedge; [4]) | S. Flatsedge plant response rating (smallflower flatsedge; [13]) | Soybean plant response rating (soybean; [10]) | Plant response rating, Soybean (soybean; [12])
0: Barnyardgrass plant response rating (bamyardgrass; [2]) | Barnyardgrass plant response rating (bamyardgrass; [3]) | Barnyardgrass plant response rating (bamyardgrass; [4]) | Barnyardgrass plant response rating (bamyardgrass; [13]) | Blackgrass plant response rating (blackgrass; [6]) | Blackgrass plant response rating (blackgrass; [7]) | Plant response rating, Blackgrass (blackgrass; [14]) | Blackgrass plant response rating (blackgrass; [9]) | Blackgrass plant response rating (blackgrass; [10]) | Blackgrass plant response rating (blackgrass; [11]) | Plant response rating, Blackgrass (blackgrass; [12]) | Blackgrass plant response rating (blackgrass; [15]) | Nutsedge plant response rating (purple nutsedge; [7]) | Plant response rating, Nutsedge (purple nutsedge; [14]) | Nutsedge plant response rating (purple nutsedge; [9]) | Nutsedge plant response rating (purple nutsedge; [10]) | Nutsedge plant response rating (purple nutsedge; [11]) | Plant response rating, Nutsedge (purple nutsedge; [12]) | Rape plant response rating (rape; [6]) | Rape plant response rating (rape; [7]) | Plant response rating, Rape (rape; [14]) | Rape plant response rating (rape; [9]) | Rape plant response rating (rape; [10]) | Rape plant response rating (rape; [11]) | Plant response rating, Rape (rape; [12]) | S. Flatsedge plant response rating (smallflower flatsedge; [2]) | S. Flatsedge plant response rating (smallflower flatsedge; [3]) | Rice plant response rating (rice; [2]) | Rice plant response rating (rice; [3]) | Rice plant response rating (rice; [4]) | Rice plant response rating (rice; [13]) | Giant foxtail plant response rating (giant foxtail; [6]) | Giant foxtail plant response rating (giant foxtail; [9]) | Giant foxtail plant response rating (giant foxtail; [10]) | Giant foxtail plant response rating (giant foxtail; [11]) | Plant response rating, Giant foxtail (giant foxtail; [12]) | Soybean plant response rating (soybean; [6]) | Soybean plant response rating (soybean; [7]) | Plant response rating, Soybean (soybean; [14]) | Soybean plant response rating (soybean; [11]) | Bedstraw plant response rating (bedstraw; [7]) | Plant response rating, Bedstraw (bedstraw; [14]) | Bedstraw plant response rating (bedstraw; [9]) | Bedstraw plant response rating (bedstraw; [10]) | Bedstraw plant response rating (bedstraw; [11]) | Sugarbeets plant response rating (sugar beet; [6]) | Sugarbeets plant response rating (sugar beet; [7]) | Plant response rating, Sugarbeets (sugar beet; [14]) | Sugarbeets plant response rating (sugar beet; [9]) | Sugarbeets plant response rating (sugar beet; [10]) | Sugarbeets plant response rating (sugar beet; [11]) | Plant response rating, Sugarbeets (sugar beet; [12]) | Ducksalad plant response rating (duck salad; [2]) | Ducksalad plant response rating (duck salad; [3]) | Ducksalad plant response rating (duck salad; [4]) | Ducksalad plant response rating (duck salad; [13]) | Velvetleaf plant response rating (velvetleaf; [6]) | Velvetleaf plant response rating (velvetleaf; [7]) | Plant response rating, Velvetleaf (velvetleaf; [14]) | Velvetleaf plant response rating (velvetleaf; [9]) | Velvetleaf plant response rating (velvetleaf; [10]) | Velvetleaf plant response rating (velvetleaf; [11]) | Plant response rating, Velvetleaf (velvetleaf; [12]) | B. signalgrass plant response rating (surinam grass; [6]) | B. signalgrass plant response rating (surinam grass; [7]) | Plant response rating, B. signalgrass (surinam grass; [14]) | B. signalgrass plant response rating (surinam grass; [9]) | B. signalgrass plant response rating (surinam grass; [10]) | B. signalgrass plant response rating (surinam grass; [11]) | Plant response rating, B. signalgrass (surinam grass; [12]) | B. signalgrass plant response rating (surinam grass; [15]) | Redroot pigweed plant response rating (pigweed; [6]) | Redroot pigweed plant response rating (pigweed; [7]) | Plant response rating, Redroot pigweed (pigweed; [14]) | Redroot pigweed plant response rating (pigweed; [9]) | Redroot pigweed plant response rating (pigweed; [10]) | Redroot pigweed plant response rating (pigweed; [11]) | Plant response rating, Redroot pigweed (pigweed; [12]) | Morningglory plant response rating (morningglory; [6]) | Morningglory plant response rating (morningglory; [7]) | Plant response rating, Morningglory (morningglory; [14]) | Morningglory plant response rating (morningglory; [9]) | Morningglory plant response rating (morningglory; [10]) | Morningglory plant response rating (morningglory; [11]) | Plant response rating, Morningglory (morningglory; [12]) | Corn plant response rating (corn; [6]) | Corn plant response rating (corn; [7]) | Plant response rating, Corn (corn; [14]) | Corn plant response rating (corn; [9]) | Corn plant response rating (corn; [10]) | Corn plant response rating (corn; [11]) | Plant response rating, Corn (corn; [12]) | Corn plant response rating (corn; [15])
7: Giant foxtail plant response rating (giant foxtail; [7]) | Plant response rating, Giant foxtail (giant foxtail; [14])
